Data reported in PMC8869984, “Multifunctional Silver(I) Complexes with Metronidazole Drug Reveal Antimicrobial Properties and Antitumor Activity against Human Hepatoma and Colorectal Adenocarcinoma Cells” (Cancers, 2022).

How the values were obtained:
P. aeruginosa ATCC 9027 = test: micro-dilution broth method (MIC, MBC); type: cell-based, Pseudomonas aeruginosa
[1] = tested on: S. typhimurium ATCC 14028; test: micro-dilution broth method (MIC, MBC); type: cell-based, Salmonella Typhimurium
C. jejunii ATCC 33291 = test: micro-dilution broth method (MIC, MBC); type: cell-based, Campylobacter jejunii
E. faecalis ATCC 29212 = test: micro-dilution broth method (MIC, MBC); type: cell-based, Enterococcus faecalis
B. subtilis ATCC 6633 = test: micro-dilution broth method (MIC, MBC); type: cell-based, Bacillus subtilis
M. luteus ATCC 10240 = test: micro-dilution broth method (MIC, MBC); type: cell-based, Micrococcus luteus
P. mirabilis ATCC 12453 = test: micro-dilution broth method (MIC, MBC); type: cell-based, Proteus mirabilis
HepG2 cells = test: TPC assay (total protein content), 72 h exposure; type: cell-based, human; conditions: mean ± SD, n = 3
Description: The human hepatoma (HepG2) and colorectal adenocarcinoma (Caco-2) cells were purchased from the American Type Culture Collection: ATCC HB-8065 and ATCC HTB-37, respectively. These cells were cultured in Minimum Essential Medium Eagle (MEME) (ATCC). The murine fibroblasts cell line (Balb/c 3T3 clone A31) (gift from the Department of Swine Diseases of the National Veterinary Research Institute in Pulawy) was cultured in Dulbecco’s Modified Eagle Medium (DMEM) (ATCC). The media were supplemented with 10% BCS (Balb/c 3T3), 10% FBS (HepG2), 20% FBS (Caco-2), 1% L-glutamine, 1% antibiotic solution. The cells were maintained in 75 cm^2 cell culture flasks (NUNC) in a humidified incubator at 37 °C in an atmosphere of 5% CO2. The medium was refreshed every two or three days, and the cells were trypsinized by 0.25% trypsin–0.02% EDTA after reaching 70–80% confluence. Single cell suspensions were prepared and adjusted to a density of 2 × 10^5 cell/mL^−1 (HepG2), 1 × 10^5 cell/mL^−1 (Caco-2) and 5 × 10^4 cell/mL^−1 (Balb/c 3T3). The cell suspension was transferred to 96-well plates (100 µL/well) and incubated for 24 h before the exposure to the studied compounds. Stock solutions of ligands and metal complexes were prepared in sterile water and diluted with culture medium to obtain a concentration range from 0.1 to 10 µM. The final concentration of sterile water was 0.1% in the medium. […] As a negative control, cultured cells were grown in the absence of studied compounds. Each concentration was tested in six replicates in three independent experiments. Cytotoxicity was assessed after 72 h of exposure of the cells to compounds. The medium was not changed during the incubation time.
This assay is based upon staining the total cellular protein (proliferation). After the incubation, the medium containing the drug was removed, and 100 µL Coomassie brilliant blue R-250 dye was added to each well. The plate was shaken for 10 min. Then, the stain was removed and the cells were rinsed twice with 100 µL of washing solution (glacial acetic acid/ethanol/water, 5:10:85, v:v:v). After that, 100 µL of the desorbing solution (1 M potassium acetate) was added, and plates were shaken again for 10 min. The absorbance was measured at 595 nm in a microplate reader Synergy HTX multi-mode reader (BioTek® Instruments Inc., Winooski, VT, USA) using a blank as a reference. Cytotoxicity was expressed as a percentage of the negative control.
The study was performed in three independent experiments. The obtained results are presented as mean values ± SD (standard deviation). The assessment of the cytotoxicity data used a one-way analysis of variance (ANOVA) followed by Dunnett’s post hoc test, which was applied to determine significance relative to the negative control.

[2] = tested on: C. perfringens ATCC 13124; test: microbe, parasite or virus in culture; type: cell-based, Clostridium perfringens
[3] = P. aeruginosa ATCC 9027, value in brackets
[4] = S. typhimurium ATCC 14028, value in brackets
[5] = C. jejunii ATCC 33291, value in brackets
[6] = E. faecalis ATCC 29212, value in brackets
[7] = B. subtilis ATCC 6633, value in brackets
[8] = M. luteus ATCC 10240, value in brackets
[9] = P. mirabilis ATCC 12453, value in brackets
[10] = C. perfringens ATCC 13124, value in brackets

SMILES	MBC (P. aeruginosa ATCC 9027; P. aeruginosa ATCC 9027)	MIC (P. aeruginosa ATCC 9027; P. aeruginosa ATCC 9027)	MBC (P. aeruginosa ATCC 9027; [3])	MIC (P. aeruginosa ATCC 9027; [3])	MBC ([1]; S. typhimurium ATCC 14028)	MIC ([1]; S. typhimurium ATCC 14028)	MBC [1, 4]	MIC [1, 4]	MBC (C. jejunii ATCC 33291; C. jejunii ATCC 33291)	MIC (C. jejunii ATCC 33291; C. jejunii ATCC 33291)	MBC (C. jejunii ATCC 33291; [5])	MIC (C. jejunii ATCC 33291; [5])	MBC (E. faecalis ATCC 29212; E. faecalis ATCC 29212)	MIC (E. faecalis ATCC 29212; E. faecalis ATCC 29212)	MBC (E. faecalis ATCC 29212; [6])	MIC (E. faecalis ATCC 29212; [6])	MBC (B. subtilis ATCC 6633; B. subtilis ATCC 6633)	MIC (B. subtilis ATCC 6633; B. subtilis ATCC 6633)	MBC (B. subtilis ATCC 6633; [7])	MIC (B. subtilis ATCC 6633; [7])	further results
O=S(=O)([O-])[O-].[Ag+].[Ag+] [Ag2SO4, silver sulfate]	125 mg/L	62.5 mg/L	0.4 µM/mL	0.2 µM/mL	250 mg/L	31.3 mg/L	0.8 µM/mL	0.1 µM/mL	> 1000 mg/L	1000 mg/L	> 3.2 µM/mL	3.2 µM/mL	125 mg/L	31.3 mg/L	0.4 µM/mL	0.1 µM/mL	31.3 mg/L	31.3 mg/L	0.1 µM/mL	0.1 µM/mL	MBC (M. luteus ATCC 10240; M. luteus ATCC 10240): 125 mg/L; MIC (M. luteus ATCC 10240; M. luteus ATCC 10240): 15.6 mg/L; MBC (M. luteus ATCC 10240; [8]): 0.4 µM/mL; MIC (M. luteus ATCC 10240; [8]): 0.05 µM/mL; MBC (P. mirabilis ATCC 12453; P. mirabilis ATCC 12453): 31.3 mg/L; MIC (P. mirabilis ATCC 12453; P. mirabilis ATCC 12453): 31.3 mg/L; MBC (P. mirabilis ATCC 12453; [9]): 0.1 µM/mL; MIC (P. mirabilis ATCC 12453; [9]): 0.1 µM/mL; IC50 (HepG2 cells): > 10 µM; MBC ([2]; C. perfringens ATCC 13124): 250 mg/L; MIC ([2]; C. perfringens ATCC 13124): 250 mg/L; MBC [2, 10]: 0.8 µM/mL; MIC [2, 10]: 0.8 µM/mL
O=[N+]([O-])[O-].[Ag+] [AgNO3, Silver nitrate]	3.9 mg/L	3.9 mg/L	0.025 µM/mL	0.025 µM/mL	15.6 mg/L	15.6 mg/L	0.09 µM/mL	0.09 µM/mL	125 mg/L	62.5 mg/L	0.74 µM/mL	0.37 µM/mL	31.3 mg/L	15.6 mg/L	0.185 µM/mL	0.09 µM/mL	15.6 mg/L	15.6 mg/L	0.09 µM/mL	0.09 µM/mL	MBC (M. luteus ATCC 10240; M. luteus ATCC 10240): 31.3 mg/L; MIC (M. luteus ATCC 10240; M. luteus ATCC 10240): 3.9 mg/L; MBC (M. luteus ATCC 10240; [8]): 0.185 µM/mL; MIC (M. luteus ATCC 10240; [8]): 0.025 µM/mL; MBC (P. mirabilis ATCC 12453; P. mirabilis ATCC 12453): 15.6 mg/L; MIC (P. mirabilis ATCC 12453; P. mirabilis ATCC 12453): 7.8 mg/L; MBC (P. mirabilis ATCC 12453; [9]): 0.09 µM/mL; MIC (P. mirabilis ATCC 12453; [9]): 0.049 µM/mL; IC50 (HepG2 cells): > 10 µM; MBC ([2]; C. perfringens ATCC 13124): 62.5 mg/L; MIC ([2]; C. perfringens ATCC 13124): 62.5 mg/L; MBC [2, 10]: 0.37 µM/mL; MIC [2, 10]: 0.37 µM/mL
